According to ChEMBL document CHEMBL1130847, “Synthesis and pharmacology of N-alkylated derivatives of the excitotoxin ibotenic acid” (Bioorg Med Chem Lett, 1998):

Legend:
[1] = species on record: Rattus norvegicus; test: Evaluated for effective concentration in, in vitro electrophysiological model in the rat cortical slice model.; assay type: functional
[2] = target: Metabotropic glutamate receptor 1 (Rattus norvegicus, UniProt P23385); test: Compound was evaluated for agonistic activity against mGluR1 alpha metabotropic receptor subtype in rat cortical slice model; assay type: functional
Sequence of Metabotropic glutamate receptor 1 (P23385 whole entry): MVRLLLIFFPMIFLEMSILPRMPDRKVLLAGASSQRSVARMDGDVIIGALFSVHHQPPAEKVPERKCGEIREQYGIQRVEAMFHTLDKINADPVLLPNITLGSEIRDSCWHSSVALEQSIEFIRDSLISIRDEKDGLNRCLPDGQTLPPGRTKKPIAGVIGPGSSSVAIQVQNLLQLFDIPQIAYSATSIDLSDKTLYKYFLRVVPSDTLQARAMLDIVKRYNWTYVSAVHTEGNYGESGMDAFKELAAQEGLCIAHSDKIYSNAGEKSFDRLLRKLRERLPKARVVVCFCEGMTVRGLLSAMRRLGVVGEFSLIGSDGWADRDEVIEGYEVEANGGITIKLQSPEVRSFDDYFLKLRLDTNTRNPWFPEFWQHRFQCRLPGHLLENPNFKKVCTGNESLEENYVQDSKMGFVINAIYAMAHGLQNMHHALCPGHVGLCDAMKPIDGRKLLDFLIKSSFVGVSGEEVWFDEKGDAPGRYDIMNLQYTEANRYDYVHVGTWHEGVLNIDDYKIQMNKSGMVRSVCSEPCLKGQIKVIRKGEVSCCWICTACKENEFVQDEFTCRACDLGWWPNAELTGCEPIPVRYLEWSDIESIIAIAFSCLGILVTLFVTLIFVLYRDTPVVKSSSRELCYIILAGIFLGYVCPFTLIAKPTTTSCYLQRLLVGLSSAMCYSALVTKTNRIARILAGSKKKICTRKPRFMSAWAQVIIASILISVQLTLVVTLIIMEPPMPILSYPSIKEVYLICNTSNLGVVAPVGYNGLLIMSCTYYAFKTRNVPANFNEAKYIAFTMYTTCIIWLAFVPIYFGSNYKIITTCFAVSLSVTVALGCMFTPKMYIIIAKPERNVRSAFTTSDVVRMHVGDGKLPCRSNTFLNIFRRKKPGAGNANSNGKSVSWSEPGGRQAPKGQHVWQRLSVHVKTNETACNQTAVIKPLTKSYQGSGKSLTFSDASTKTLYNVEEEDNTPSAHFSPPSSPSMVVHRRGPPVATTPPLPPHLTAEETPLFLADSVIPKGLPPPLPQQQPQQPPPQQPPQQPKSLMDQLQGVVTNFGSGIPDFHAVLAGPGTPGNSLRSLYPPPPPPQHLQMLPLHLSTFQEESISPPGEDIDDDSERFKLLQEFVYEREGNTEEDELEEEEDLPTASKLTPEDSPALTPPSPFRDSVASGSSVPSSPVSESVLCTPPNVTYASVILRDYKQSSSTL

Compound	EC50 [1]	EC50 [2]
Cc1onc(O)c1C(N)C(=O)O (stereo not given)	12 µM	> 1000 µM
NC(C(=O)O)c1cc(O)no1 (stereo not given)	9.6 µM	43 µM
CCNC(C(=O)O)c1cc(O)no1 (stereo not given)	320 µM	> 1000 µM
O=C(O)C(NCc1ccccc1)c1cc(O)no1 (stereo not given)	> 1000 µM	> 1000 µM
CNC(C(=O)O)c1cc(O)no1 (stereo not given)	140 µM	> 1000 µM
